Measurements as given in ChEMBL document CHEMBL1156471, “Targeting host cell furin proprotein convertases as a therapeutic strategy against bacterial toxins and viral pathogens” (J Biol Chem, 2007).
pKi: −log10 of the molar value. Non-standard residues stand in square brackets, D forms with d. Residues, ends and D or L forms follow the SMILES beside them. Ahx = NCCCCCC(=O)O; Sar = CNCC(=O)O

Biological target: Furin (Homo sapiens, UniProt P09958)
Sequence (P09958 whole entry): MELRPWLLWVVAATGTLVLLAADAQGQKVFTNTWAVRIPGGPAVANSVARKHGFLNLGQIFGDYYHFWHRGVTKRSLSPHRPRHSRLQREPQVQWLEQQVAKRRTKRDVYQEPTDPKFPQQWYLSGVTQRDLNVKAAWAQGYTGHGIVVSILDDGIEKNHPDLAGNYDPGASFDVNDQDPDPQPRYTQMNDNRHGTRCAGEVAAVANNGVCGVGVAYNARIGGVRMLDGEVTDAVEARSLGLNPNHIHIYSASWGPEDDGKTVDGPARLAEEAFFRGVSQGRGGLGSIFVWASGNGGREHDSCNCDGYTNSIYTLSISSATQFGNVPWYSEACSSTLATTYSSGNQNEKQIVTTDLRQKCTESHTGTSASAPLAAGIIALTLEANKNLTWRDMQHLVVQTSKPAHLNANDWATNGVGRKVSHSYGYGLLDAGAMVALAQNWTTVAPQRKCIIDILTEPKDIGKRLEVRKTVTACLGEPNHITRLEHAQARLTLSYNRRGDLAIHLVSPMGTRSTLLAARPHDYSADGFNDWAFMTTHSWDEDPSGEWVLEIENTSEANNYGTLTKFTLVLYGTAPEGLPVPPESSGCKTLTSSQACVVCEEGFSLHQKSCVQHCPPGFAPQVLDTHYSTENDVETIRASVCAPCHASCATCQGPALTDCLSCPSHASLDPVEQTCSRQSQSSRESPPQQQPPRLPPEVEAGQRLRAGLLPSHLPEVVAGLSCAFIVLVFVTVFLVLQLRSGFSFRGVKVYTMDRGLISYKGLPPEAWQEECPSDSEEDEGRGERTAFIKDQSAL

Compound | pKi
C[C@H](NC(=O)[C@H](CCCNC(=N)N)NC(=O)[C@H](CCC(=O)O)NC(=O)[C@H](CCCNC(=N)N)NC(=O)[C@@H]1CCCN1C(=O)[C@@H](N)[C@@H](C)O)C(=O)N[C@@H](CCCNC(=N)N)C(=O)N[C@@H](CCCCN)C(=O)N[C@@H](CCCCN)C(=O)N[C@@H](CCCNC(=N)N)C(=O)N(C)CC(=O)O (H-TPRERARKKR[Sar]-OH) | < 7.00
H-TPQRIRRRKKRG-OH | < 7.00
H-GGGTPRARRRKKRF-OH | 7.17
H-TPRARRRKKRQ-OH | 7.33
C[C@@H](O)[C@H](N)C(=O)N1CCC[C@H]1C(=O)N[C@@H](CCCN=C(N)N)C(=O)NC1(C(=O)N[C@@H](CCCN=C(N)N)C(=O)N[C@@H](CCCN=C(N)N)C(=O)N[C@@H](CCCN=C(N)N)C(=O)N[C@@H](CCCCN)C(=O)N[C@@H](CCCCN)C(=O)N[C@@H](CCCN=C(N)N)C(=O)NCC(=O)O)CCCC1 | < 7.00
H-TPREAAAKKR-OH | < 7.00
H-TPRERARKKRV-OH | < 7.00
H-TPRWRRRKKRG-NH2 | < 7.00
H-AARERRRKKRV-OH | < 7.00
C[C@@H](O)[C@H](N)C(=O)N1CCC[C@H]1C(=O)N[C@@H](CCC(N)=O)C(=O)N[C@@H](CCCN=C(N)N)C(=O)N[C@H](CCCCN)C(=O)N[C@@H](CCCN=C(N)N)C(=O)N[C@@H](CCCN=C(N)N)C(=O)N[C@@H](CCCN=C(N)N)C(=O)N[C@@H](CCCCN)C(=O)N[C@@H](CCCCN)C(=O)N[C@@H](CCCNC(=N)N)C(=O)NCC(=O)O | < 7.00
H-TPRERRRKKA-OH | < 7.00
H-TPRERRAAKR-OH | < 7.00
C[C@H](NC(=O)[C@H](C)NC(=O)[C@H](CCCN=C(N)N)NC(=O)[C@H](CCCN=C(N)N)NC(=O)[C@H](CCCN=C(N)N)NC(=O)[C@H](CCC(=O)O)NC(=O)[C@H](CCCN=C(N)N)NC(=O)[C@@H]1CCCN1C(=O)[C@@H](N)[C@@H](C)O)C(=O)N[C@@H](CCCN=C(N)N)C(=O)O | < 7.00
H-GAGAGATPRARRRKKRF-OH | 7.25
H-TPREAARKKRG-OH | < 7.00
C[C@H](NC(=O)[C@H](CCCNC(=N)N)NC(=O)[C@H](CCC(N)=O)NC(=O)[C@@H]1CCCN1C(=O)[C@@H](N)[C@@H](C)O)C(=O)N[C@@H](CCCNC(=N)N)C(=O)N[C@@H](CCCNC(=N)N)C(=O)N[C@@H](CCCNC(=N)N)C(=O)N[C@@H](CCCCN)C(=O)N[C@@H](CCCCN)C(=O)N[C@@H](CCCNC(=N)N)C(=O)N[C@@H](CCCCN)C(=O)O | < 7.00
H-TPQRARRRKKRE-OH | 6.99
H-TPAAARRKKRV-OH | < 7.00
H-TPREARRKKRG-OH | < 7.00
H-TPRCRRRKKRG-OH | < 7.00
H-TPAERRRKKRG-NH2 | < 7.00
H-TPQRVRRRKKRG-OH | < 7.00
H-TPRERRRKKAV-OH | < 7.00
H-TPRTRRRKKRG-OH | < 7.00
H-TPRARRRKKRF-NH2 | 7.42

Compound | pKi
H-TPQRARRRKKRH-OH | < 7.00
H-TPRARRRKKRW-OH | 7.23
H-TPQRWRRRKKRG-OH | < 7.00
C[C@@H](O)[C@H](N)C(=O)N1CCC[C@H]1C(=O)N[C@@H](CCCN=C(N)N)C(=O)N[C@H](CCCCN)C(=O)N[C@@H](CCCN=C(N)N)C(=O)N[C@@H](CCCN=C(N)N)C(=O)N[C@@H](CCCN=C(N)N)C(=O)N[C@@H](CCCCN)C(=O)N[C@@H](CCCCN)C(=O)N[C@@H](CCCN=C(N)N)C(=O)NCC(N)=O | < 7.00
C[C@@H](O)[C@H](N)C(=O)N1CCC[C@H]1C(=O)N[C@@H](CCC(N)=O)C(=O)N[C@@H](CCCNC(=N)N)C(=O)N[C@@H](CS)C(=O)N[C@@H](CCCNC(=N)N)C(=O)N[C@@H](CCCNC(=N)N)C(=O)N[C@@H](CCCNC(=N)N)C(=O)N[C@@H](CCCCN)C(=O)N[C@@H](CCCCN)C(=O)N[C@@H](CCCNC(=N)N)C(=O)NCC(=O)O | < 7.00
H-TPRQRRRKKRG-OH | < 7.00
H-TPQRGRRRKKRG-OH | < 7.00
H-TAAERRRKKR-OH | < 7.00
H-TPRERRRAKR-OH | < 7.00
H-TPRTRRRKKRG-NH2 | < 7.00
C[C@H](NC(=O)[C@H](CCCNC(=N)N)NC(=O)[C@@H]1CCCN1C(=O)[C@@H](N)[C@@H](C)O)C(=O)N[C@@H](CCCNC(=N)N)C(=O)N[C@@H](CCCNC(=N)N)C(=O)N[C@@H](CCCNC(=N)N)C(=O)N[C@@H](CCCCN)C(=O)N[C@@H](CCCCN)C(=O)N[C@@H](CCCNC(=N)N)C(=O)N[C@@H](CS)C(=O)O | < 7.00
H-TPRARRRKKRR-OH | < 7.00
H-TPRARRRKKRH-NH2 | < 7.00
H-TPRYRRRKKRG-OH | < 7.00
C[C@H](N)C(=O)N1CCC[C@H]1C(=O)N[C@@H](CCCNC(=N)N)C(=O)N[C@@H](CCC(=O)O)C(=O)N[C@@H](CCCNC(=N)N)C(=O)N[C@@H](CCCNC(=N)N)C(=O)N[C@@H](CCCNC(=N)N)C(=O)N[C@@H](CCCCN)C(=O)N[C@@H](CCCCN)C(=O)N[C@@H](CCCNC(=N)N)C(=O)N(C)CC(=O)O (H-APRERRRKKR[Sar]-OH) | < 7.00
H-GGGTPRARRRKKRT-OH | 7.41
H-GGGGGGTPQRARRRKKRW-OH | 7.06
C[C@@H](O)[C@H](N)C(=O)N1CCC[C@H]1C(=O)N[C@@H](CCC(N)=O)C(=O)N[C@@H](CCCNC(=N)N)C(=O)NCCC(=O)N[C@@H](CCCN=C(N)N)C(=O)N[C@@H](CCCN=C(N)N)C(=O)N[C@@H](CCCN=C(N)N)C(=O)N[C@@H](CCCCN)C(=O)N[C@@H](CCCCN)C(=O)N[C@@H](CCCNC(=N)N)C(=O)NCC(=O)O | < 7.00
CCCC[C@H](NC(=O)[C@H](CCCNC(=N)N)NC(=O)[C@H](CCC(N)=O)NC(=O)[C@@H]1CCCN1C(=O)[C@@H](N)[C@@H](C)O)C(=O)N[C@@H](CCCNC(=N)N)C(=O)N[C@@H](CCCNC(=N)N)C(=O)N[C@@H](CCCNC(=N)N)C(=O)N[C@@H](CCCCN)C(=O)N[C@@H](CCCCN)C(=O)N[C@@H](CCCNC(=N)N)C(=O)NCC(=O)O | < 7.00
H-TPAARRRKKRG-OH | < 7.00
H-TARERRRKKRG-NH2 | < 7.00
H-TPQRARRRKKRM-OH | 7.24
H-TPRARRRKKRP-OH | < 7.00
H-AAAERRRKKRV-OH | < 7.00
H-TPRARRRKKRG-NH2 | 7.24

Compound | pKi
H-TPREAARKKR-OH | < 7.00
C[C@H](NC(=O)[C@H](CCCNC(=N)N)NC(=O)[C@H](CCC(N)=O)NC(=O)[C@@H]1CCCN1C(=O)[C@@H](N)[C@@H](C)O)C(=O)N[C@@H](CCCNC(=N)N)C(=O)N[C@@H](CCCNC(=N)N)C(=O)N[C@@H](CCCNC(=N)N)C(=O)N[C@@H](CCCCN)C(=O)N[C@@H](CCCCN)C(=O)N[C@@H](CCCNC(=N)N)C(=O)NCCCCCC(=O)O (H-TPQRARRRKKR[Ahx]-OH) | < 7.00
C[C@@H](O)[C@H](N)C(=O)N1CCC[C@H]1C(=O)N[C@@H](CCCNC(=N)N)C(=O)N[C@@H](CCC(=O)O)C(=O)N[C@@H](CCCNC(=N)N)C(=O)N[C@@H](CCCNC(=N)N)C(=O)N[C@@H](CCCNC(=N)N)C(=O)N[C@@H](CCCCN)C(=O)N[C@@H](CCCCN)C(=O)N[C@@H](CCCNC(=N)N)C(=O)NCC(=O)O | < 7.00
H-TPRVRRRKKRG-OH | < 7.00
H-TPAERRRKKR-OH | < 7.00
H-TPAARRRKKR-OH | < 7.00
H-TPRMRRRKKRG-NH2 | < 7.00
H-TPRERRRKKR-OH | < 7.00
C[C@@H](O)[C@H](N)C(=O)N1CCC[C@H]1C(=O)N[C@@H](CCC(N)=O)C(=O)N[C@@H](CCCN=C(N)N)C(=O)N[C@@H](CCCCN)C(=O)N[C@@H](CCCN=C(N)N)C(=O)N[C@@H](CCCN=C(N)N)C(=O)N[C@@H](CCCN=C(N)N)C(=O)N[C@@H](CCCCN)C(=O)N[C@@H](CCCCN)C(=O)N[C@@H](CCCNC(=N)N)C(=O)NCC(=O)O | < 7.00
H-TPRERRRKAR-OH | < 7.00
H-TPQRFRRRKKRG-OH | < 7.00
C[C@H](NC(=O)[C@H](CCCNC(=N)N)NC(=O)[C@H](CCCNC(=N)N)NC(=O)[C@H](CCC(=O)O)NC(=O)[C@H](CCCNC(=N)N)NC(=O)[C@@H]1CCCN1C(=O)[C@@H](N)[C@@H](C)O)C(=O)N[C@@H](CCCCN)C(=O)N[C@@H](CCCCN)C(=O)N[C@@H](CCCNC(=N)N)C(=O)N(C)CC(=O)O (H-TPRERRAKKR[Sar]-OH) | < 7.00
C[C@@H](O)[C@H](N)C(=O)N1CCC[C@H]1C(=O)N[C@@H](CCCNC(=N)N)C(=O)NCCCCCC(=O)N[C@@H](CCCNC(=N)N)C(=O)N[C@@H](CCCNC(=N)N)C(=O)N[C@@H](CCCNC(=N)N)C(=O)N[C@@H](CCCCN)C(=O)N[C@@H](CCCCN)C(=O)N[C@@H](CCCNC(=N)N)C(=O)NCC(N)=O | < 7.00
H-TPRARRRKKRS-NH2 | < 7.00
C[C@H](NC(=O)[C@H](CCC(=O)O)NC(=O)[C@H](CCCNC(=N)N)NC(=O)[C@@H]1CCCN1C(=O)[C@@H](N)[C@@H](C)O)C(=O)N[C@@H](CCCNC(=N)N)C(=O)N[C@@H](CCCNC(=N)N)C(=O)N[C@@H](CCCCN)C(=O)N[C@@H](CCCCN)C(=O)N[C@@H](CCCNC(=N)N)C(=O)N(C)CC(=O)O (H-TPREARRKKR[Sar]-OH) | < 7.00
H-TPAAARRKKRG-OH | < 7.00
H-TPQRARRRKKRI-OH | < 7.00
C[C@@H](O)[C@H](N)C(=O)N1CCC[C@H]1C(=O)N[C@@H](CCCNC(=N)N)C(=O)N[C@H](CCC(=O)O)C(=O)N[C@@H](CCCNC(=N)N)C(=O)N[C@@H](CCCNC(=N)N)C(=O)N[C@@H](CCCNC(=N)N)C(=O)N[C@@H](CCCCN)C(=O)N[C@@H](CCCCN)C(=O)N[C@@H](CCCNC(=N)N)C(=O)NCC(=O)O | < 7.00
CSCC[C@H](NC(=O)[C@H](CCCN=C(N)N)NC(=O)[C@H](CCC(N)=O)NC(=O)[C@@H]1CCCN1C(=O)[C@@H](N)[C@@H](C)O)C(=O)N[C@@H](CCCN=C(N)N)C(=O)N[C@@H](CCCN=C(N)N)C(=O)N[C@@H](CCCN=C(N)N)C(=O)N[C@@H](CCCCN)C(=O)N[C@@H](CCCCN)C(=O)N[C@@H](CCCNC(=N)N)C(=O)NCC(=O)O | < 7.00
H-TPRAARRKKR-OH | < 7.00
H-TPRNRRRKKRG-OH | < 7.00
C[C@@H](O)[C@H](N)C(=O)N1CCC[C@H]1C(=O)N[C@@H](CCC(N)=O)C(=O)N[C@@H](CCCNC(=N)N)C(=O)N[C@@H](CCCNC(N)=O)C(=O)N[C@@H](CCCNC(=N)N)C(=O)N[C@@H](CCCNC(=N)N)C(=O)N[C@@H](CCCNC(=N)N)C(=O)N[C@@H](CCCCN)C(=O)N[C@@H](CCCCN)C(=O)N[C@@H](CCCNC(=N)N)C(=O)NCC(=O)O | < 7.00
H-TPRVRRRKKRG-NH2 | < 7.00
